These results are taken from ChEMBL document CHEMBL1143815, “Spread of extended-spectrum beta-lactamase CTX-M-producing escherichia coli clinical isolates in community and nosocomial environments in Portugal” (2007).

Common to all, as to assay type: functional
Experiment [1] relates to Escherichia coli. Description: Antibacterial activity against Escherichia coli INSRA5776 isolates expressing CTX-M-14 and TEM-1B enzymes by agar dilution method. For orientation: Agar dilution tests growth on a series of plates holding different concentrations.
In experiment [2] the test system is Escherichia coli. Description: Antibacterial activity against CTX-M group 1 enzyme producing Escherichia coli isolates assessed as percent nonsusceptible isolates by broth microdilution method.
In experiment [3] the test system is Escherichia coli. Description: Antibacterial activity against CTX-M group 9 enzyme producing Escherichia coli isolates by broth microdilution method. In general terms: Broth dilution looks for growth in wells or tubes with falling amounts of substance.
Experiment [4] relates to Escherichia coli. Description: Antibacterial activity against Escherichia coli DH5 alpha-URA5905 isolates expressing CTX-M-15 and TEM-1B enzymes by agar dilution method.
For experiment [5], the system named is Escherichia coli. Description: Antibacterial activity against Escherichia coli DH5 alpha-URA5776 isolates expressing CTX-M-14 enzyme by agar dilution method.
In experiment [6] the test system is Escherichia coli. Description: Antibacterial activity against Escherichia coli DH5 alpha-URA5924 isolates expressing CTX-M-32 by agar dilution method.
Experiment [7] concerns Escherichia coli. Description: Antibacterial activity against CTX-M group 1 enzyme producing Escherichia coli isolates assessed as percent resistant isolates by broth microdilution method.
In experiment [8] the test system is Escherichia coli. Description: Antibacterial activity against CTX-M group 9 enzyme producing Escherichia coli isolates assessed as percent resistant isolates by broth microdilution method.
The test system of experiment [9] is Escherichia coli. Description: Antibacterial activity against CTX-M group 1 enzyme producing Escherichia coli isolates by broth microdilution method.
The subject of experiment [10] is Escherichia coli. Description: Antibacterial activity against CTX-M group 9 enzyme producing Escherichia coli isolates assessed as percent nonsusceptible isolates by broth microdilution method.
In experiment [11] the test system is Escherichia coli. Description: Antibacterial activity against Escherichia coli INSRA5905 isolates expressing CTX-M-15 and TEM-1B enzymes by agar dilution method.
Experiment [12] concerns Escherichia coli. Description: Antibacterial activity against Escherichia coli INSRA5924 isolates expressing CTX-M-32 and TEM-1B enzymes by agar dilution method.
In experiment [13] the test system is Escherichia coli. Description: Antibacterial activity against Escherichia coli DH5 alpha isolates by agar dilution method.

Converted amounts (≈) assume the structure as drawn.

Turning to `C[C@H]1[C@H](NC(=O)/C(=N\OC(C)(C)C(=O)O)c2csc(N)n2)C(=O)N1S(=O)(=O)O` [AZTREONAM], the minimum inhibitory concentration (MIC) amounted to 8 µg/mL (≈ 18.4 µM) in experiment [1]; 64 µg/mL (≈ 147 µM) in experiment [4]; 8 µg/mL (≈ 18.4 µM) in experiment [5]; 64 µg/mL (≈ 147 µM) in [6]; 128 µg/mL (≈ 294 µM) in experiment [11]; 64 µg/mL (≈ 147 µM) in experiment [12]. For the same compound, the Activity in experiment [2] was 100%; in [7], 100%; in experiment [8], 11%; in experiment [10] it was 22%. For the same compound, the MIC50 in experiment [3] was 8 µg/mL (≈ 18.4 µM); in experiment [9], greater than 16 µg/mL. The MIC90 in experiment [3] and in experiment [9] was greater than 16 µg/mL each time.
With `NC[C@H]1O[C@H](O[C@H]2[C@H](O)[C@@H](O[C@H]3O[C@H](CO)[C@@H](O)[C@H](N)[C@H]3O)[C@H](N)C[C@@H]2N)[C@H](N)C[C@@H]1O` [TOBRAMYCIN], the Activity in experiment [2] amounted to 95%; in experiment [7], 94%; in [10], 22%. Also, the results for the MIC50 in experiment [3] and in experiment [9] were no more than 2 µg/mL and greater than 8 µg/mL, respectively. In addition, the MIC90 in experiment [3] and in [9] was greater than 8 µg/mL each time.
As for `CO/N=C(\C(=O)N[C@@H]1C(=O)N2C(C(=O)O)=C(COC(C)=O)CS[C@H]12)c1csc(N)n1` (stereo in doubt) [CEFOTAXIME], the minimal inhibitory concentration (MIC) in experiment [13] amounted to 0.06 µg/mL (≈ 0.132 µM); in experiment [1] it was 32 µg/mL (≈ 70.3 µM); in experiment [4], 512 µg/mL (≈ 1120 µM); in experiment [5], 32 µg/mL (≈ 70.3 µM); in experiment [6] it was 128 µg/mL (≈ 281 µM); in experiment [11], 512 µg/mL (≈ 1120 µM). The compound also yielded an MIC in [12] of 256 µg/mL (≈ 562 µM). Moreover, the Activity in experiment [2] is on record as 100%; in experiment [7] it was 99%; in [10] it was 100%. Further, the MIC50 in experiment [3] and in [9] was greater than 32 µg/mL throughout. Besides, the MIC90 in [3] and in experiment [9] was greater than 32 µg/mL in each case.
With `CO[C@@]1(NC(=O)Cc2cccs2)C(=O)N2C(C(=O)O)=C(COC(N)=O)CS[C@@H]21` [CEFOXITIN], the minimal inhibitory concentration (MIC) in [13] turned out to be 4 µg/mL (≈ 9.36 µM); in experiment [1] it was 32 µg/mL (≈ 74.9 µM); in experiment [4], 4 µg/mL (≈ 9.36 µM); in [5] it was 4 µg/mL (≈ 9.36 µM); in experiment [6] it was 8 µg/mL (≈ 18.7 µM); in [11], 16 µg/mL (≈ 37.4 µM). Besides, the MIC in experiment [12] is 16 µg/mL (≈ 37.4 µM). In addition, the Activity in experiment [2] came out at 5%; in [7] it was 1%; in [8], 0%; in [10], 11%. Besides, the MIC50 in experiment [3] and in experiment [9] was no more than 4 µg/mL each time. Further, the MIC90 in experiment [3] is greater than 16 µg/mL; in [9], 8 µg/mL (≈ 18.7 µM).
Regarding `NCC[C@H](O)C(=O)N[C@@H]1C[C@H](N)[C@@H](O[C@H]2O[C@H](CN)[C@@H](O)[C@H](O)[C@H]2O)[C@H](O)[C@H]1O[C@H]1O[C@H](CO)[C@@H](O)[C@H](N)[C@H]1O` [AMIKACIN], the Activity worked out at 7% in experiment [2], 4% in experiment [7] and 0% in experiment [10]. For the same compound, the MIC50 in experiment [3] and in [9] was no more than 8 µg/mL in each case. Also, the MIC90 in experiment [3] and in [9] was 16 µg/mL (≈ 27.3 µM) throughout.
Consider `CC(C)(O/N=C(\C(=O)N[C@@H]1C(=O)N2C(C(=O)[O-])=C(C[n+]3ccccc3)CS[C@H]12)c1csc(N)n1)C(=O)O` [CEFTAZIDIME], for which the MIC in experiment [13] is 0.25 µg/mL (≈ 0.457 µM); in experiment [1], 2 µg/mL (≈ 3.66 µM); in experiment [4] it was 64 µg/mL (≈ 117 µM); in experiment [5] it was 1 µg/mL (≈ 1.83 µM); in experiment [6], 16 µg/mL (≈ 29.3 µM); in experiment [11] it was 128 µg/mL (≈ 234 µM). For the same compound, the minimal inhibitory concentration (MIC) in [12] came out at 16 µg/mL (≈ 29.3 µM). Moreover, the Activity in experiment [2] was found to be 99%; in experiment [7], 98%; in [8] it was 11%; in [10] it was 11%. The MIC50 in experiment [3] was 2 µg/mL (≈ 3.66 µM); in [9] it was greater than 16 µg/mL. Moreover, the MIC90 in [3] and in experiment [9] was greater than 16 µg/mL each time.
On to `CO/N=C(\C(=O)N[C@@H]1C(=O)N2C(C(=O)[O-])=C(C[N+]3(C)CCCC3)CS[C@H]12)c1csc(N)n1`, for which the minimum inhibitory concentration (MIC) stood at 0.03 µg/mL (≈ 0.0624 µM) in experiment [13]; 8 µg/mL (≈ 16.6 µM) in experiment [1]; 8 µg/mL (≈ 16.6 µM) in experiment [4]; 2 µg/mL (≈ 4.16 µM) in experiment [5]; 4 µg/mL (≈ 8.32 µM) in experiment [6]; 16 µg/mL (≈ 33.3 µM) in [12]. Further, the MIC50 in [3] and in experiment [9] was greater than 16 µg/mL throughout. The MIC90 in experiment [3] and in experiment [9] was greater than 16 µg/mL throughout. Also, the Activity is reported as 78% in experiment [8] and 100% in [10].
Regarding `CCn1cc(C(=O)O)c(=O)c2cc(F)c(N3CCNCC3)cc21` [NORFLOXACIN], the Activity in experiment [2] came to 98%; in experiment [7] it was 98%; in experiment [8] it was 33%; in experiment [10], 33%. Moreover, the MIC50 was no more than 2 µg/mL in experiment [3] and greater than 8 µg/mL in experiment [9]. The MIC90 in experiment [3] and in experiment [9] was greater than 8 µg/mL in each case.

Usually MIC stands for the smallest concentration in the dilution series that meets the test's criterion for growth inhibition. Lower therefore signals inhibition by little substance. As a reminder, the MIC50 is the lowest concentration that inhibits either 50% of growth or 50% of the strains tested, depending on the study. A low value points to higher susceptibility. A word on the MIC90: it is an inhibitory concentration at the 90% level, which refers to growth in some studies and to a panel of isolates in others. The low end stands for greater potency, the high end for weaker potency.
